Data as given in US7834172B2, “Composition comprising at least one nucleosidic moiety as a therapeutic agent, and CKC” (Novagali Pharma SA, priority 2007, dated 2010).

Experiment: CKC/oligonucleotide complex formation, observation of precipitation
Format: physicochemical
Conditions: SEQ ID No. 2 solution 10 μM
Source text: CKC/Oligonucleotides complexes are formed due to the interaction of the CKC positive charges with the oligonucleotides negative charges conferred by each of the bases (18 in the case of SEQ ID No.2). The complex formation has the effect of neutralizing part of the negative charges of the oligonucleotides and to bring some lipophilic moieties to the complex. A stable complex with a balanced lipophilicity enhances the oligonucleotide penetration in the cells due to the affinity with the lipophilic cell membranes.
Stable complexes are formed without precipitation at ratios below 10/18 (CKC/oligonucleotide negative charges, the few lipophilic moieties being unable to induce the precipitation.

For “SEQ ID No. 2: 18 mer-phosphorotioate oligonucleotide, 5′-3′ sequence ACT CAT ATT CAT AGG GTG (DNA ACTCATATTCATAGGGTG; all phosphorothioate, sugars by position and methylation of C not given here; further chemistry not fully specified)”, the “Observation (precipitation)” value (ratio CKC/negative charges 0.05, CKC 10 μM) was “No precipitation”, the “Observation (precipitation)” value (ratio CKC/negative charges 0.27, CKC 50 μM) was “No precipitation” and the “Observation (precipitation)” value (ratio CKC/negative charges 0.55, CKC 100 μM) was “No precipitation”. The “Observation (precipitation)” value (ratio CKC/negative charges 0.83, CKC 150 μM) was “↓”, the “Observation (precipitation)” value (ratio CKC/negative charges 1.11, CKC 200 μM) was “↓” and the “Observation (precipitation)” value (ratio CKC/negative charges 1.66, CKC 300 μM) was “↓”. The “Observation (precipitation)” value (ratio CKC/negative charges 2.22, CKC 400 μM) was “↓”, the “Observation (precipitation)” value (ratio CKC/negative charges 2.77, CKC 500 μM) was “↓” and the “Observation (precipitation)” value (ratio CKC/negative charges 4.17, CKC 750 μM) was “↓↓”. For the same substance, the “Observation (precipitation)” value (ratio CKC/negative charges 5.55, CKC 1000 μM) was “↓↓↓” and the “Observation (precipitation)” value (ratio CKC/negative charges 55.55, CKC 10000 μM) was “↓↓↓”.
